We go through one compound from PMC9570967 (Molecules, 2022).

For orientation: IC50 means the concentration that inhibits the measured activity by half. Lower therefore signals greater potency in that assay. The Ki is the dissociation constant of the complex between target and ligand, obtained from inhibition or displacement. For orientation: EC50 means the concentration at which the effect is half-maximal. Usually Emax stands for the maximal effect, on the per cent scale that the assay sets.

Entries after “also recorded” stand apart in the source; their conditions may differ. A value given as a limit tells only on which side of the number the result lay.

The target of series [1] is T1, human κ-opioid receptor (OPRK1) (Homo sapiens, UniProt P41145). Nature of the series: cell-based.
T1 sequence (P41145 whole entry): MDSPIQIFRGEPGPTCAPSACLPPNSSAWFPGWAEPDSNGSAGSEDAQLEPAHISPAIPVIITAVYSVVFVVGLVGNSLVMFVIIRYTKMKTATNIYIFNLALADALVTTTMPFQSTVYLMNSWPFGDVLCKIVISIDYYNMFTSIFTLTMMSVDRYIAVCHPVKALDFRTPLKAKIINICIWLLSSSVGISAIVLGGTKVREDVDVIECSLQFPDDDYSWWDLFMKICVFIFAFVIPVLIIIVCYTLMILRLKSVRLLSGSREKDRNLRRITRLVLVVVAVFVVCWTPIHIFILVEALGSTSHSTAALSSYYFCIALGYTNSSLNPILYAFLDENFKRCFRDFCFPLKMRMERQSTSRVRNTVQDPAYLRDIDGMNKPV
In series [2] the test system is squirrel monkeys. Nature of the series: Antinociception: warm-water tail-withdrawal. In kind it is in vivo, squirrel monkeys (Saimiri sciureus). Particulars: 52 °C water, cumulative dosing. The method, then: Male squirrel monkeys (Saimiri sciureus) were housed in a climate-controlled vivarium with a 12 h light/dark cycle (7 AM–7 PM) in the McLean Hospital Animal Care Facility (licensed by the U.S. Department of Agriculture and compliant with guidelines provided by the Committee on Care and Use of Laboratory Animals of the Institute of Laboratory Animals Resources, Commission on Life Sciences, National Research Council; 2011). Tail withdrawal latencies were assessed as described previously. Briefly, monkeys were seated in customized Plexiglas chairs that allowed their tails to hang freely. Tail withdrawal latencies were measured by immersing the subject’s tail in water held at 35 or 52 °C (temperatures were presented in a randomized order during successive test components). After obtaining a baseline tail withdrawal latency, complete dose response curves were generated in each subject using standard cumulative dosing procedures. Briefly, every 15 min after an injection tail-withdrawal latencies at each temperature were redetermined and subjects were injected with the next dose, such that the total (cumulative) dose was increased by ½ log10 units in each successive cycle. This procedure was repeated until either (a) the tail-withdrawal latency from 52 °C water reached the maximum allowable latency (10 sec), or (b) tail-withdrawal latency no longer increased with increases in dose of the test drug.
(§1) All statistical analyses and graphic representations were completed with GraphPad Prism version 9.3.0 (GraphPad Software, San Diego, CA, USA) using log transformed values of doses. Group means ± SEM tail withdrawal latencies (in sec) and minute volume ratios are plotted as a function of drug dose. Data were analyzed using One-way ANOVA with significance set at p < 0.05, followed by Dunnett’s multiple comparison test.

Series [3] deals with T2, mouse mu opioid receptor (Mus musculus, UniProt P42866).
T2 construct: expressed in transfected cells; host or cells: CHO (mMOR-CHO), membrane homogenates
T2 sequence (P42866 whole entry): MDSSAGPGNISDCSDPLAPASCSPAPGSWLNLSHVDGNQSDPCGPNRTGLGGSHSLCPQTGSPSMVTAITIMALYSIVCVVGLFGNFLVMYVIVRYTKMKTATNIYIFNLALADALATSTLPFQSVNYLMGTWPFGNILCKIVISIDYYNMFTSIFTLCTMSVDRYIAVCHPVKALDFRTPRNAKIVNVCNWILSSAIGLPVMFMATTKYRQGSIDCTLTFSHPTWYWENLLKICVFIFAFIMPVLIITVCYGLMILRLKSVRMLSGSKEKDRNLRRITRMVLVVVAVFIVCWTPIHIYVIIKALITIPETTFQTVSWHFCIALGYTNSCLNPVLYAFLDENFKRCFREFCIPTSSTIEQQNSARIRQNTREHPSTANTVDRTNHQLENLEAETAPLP
Nature of the series: Competition radioligand binding assay ([3H]naloxone, mMOR-CHO membranes). Particulars: 1.4 nM [3H]naloxone, read-out: [3H]NLX Binding Ki. The method, then:
In vitro binding assays were performed using monocloned mouse mu opioid receptor expressing Chinese hamster ovary (CHO) cells (mMOR-CHO). mMOR-CHO cell culture and membrane homogenate preparation were performed as previously described. All assays were duplicated and repeated at least three times.
Competition binding assays were performed as previously described. […] Bound radioactive ligand was isolated by filtration through GF/B glass fiber filters and rinsed three times with ice-cold wash buffer (50 mM Tris-HCl, pH 7.2). Bound radioactivity was determined via liquid scintillation ounting. […] The IC50 values were determined by nonlinear regression analysis using GraphPad Prism 9 (GraphPad Software, San Diego, CA, USA) and converted to Ki values using the Cheng–Prusoff equation.

Series [4] has as its target T1, human κ-opioid receptor (OPRK1). Nature of the series: cell-based. The source holds these as a separate data set.
The target is the same in series [5]. Particulars: versus EC90 of U50488H; normalized to nor-BNI.
Series [6] deals with squirrel monkeys. Nature of the series: Respiratory depression: ventilatory response to hypercapnia (5% CO2 in air). The class given is in vivo, squirrel monkeys (Saimiri sciureus). Particulars: ratio of minute volumes in 5% CO2 and room air, cumulative dosing. As for the experimental part:
Ventilation measures were assessed as described previously. Briefly, squirrel monkeys were acclimated to a customized acrylic chamber (10″ d × 10″ w × 10″ h) that served as a whole-body plethysmograph (EMKA Technologies, Montreal, PQ, Canada). Gas (either air or a 5% CO2 in air mixture) was introduced to and extracted from the chamber at a constant flow rate of 5 L/min. Experimental sessions consisted of 4–6 consecutive 30 min cycles, each comprising a 20 min exposure to air followed by a 10 min exposure to 5% CO2. Drug effects were determined using cumulative dosing procedures, and injections were administered following each exposure to 5% CO2. Respiratory rate and tidal volume (mL/breath) were recorded over 1 min periods and were multiplied to provide minute volumes. Data from the last three minutes of each exposure to air or CO2 were averaged and used for analysis of drug effects on ventilation.
as §1

The target in series [7] is T3, human δ-opioid receptor (OPRD1) (Homo sapiens, UniProt P41143). As to the kind of experiment: Forskolin-induced cAMP accumulation assay, DOR agonist mode.
T3 sequence (P41143 whole entry): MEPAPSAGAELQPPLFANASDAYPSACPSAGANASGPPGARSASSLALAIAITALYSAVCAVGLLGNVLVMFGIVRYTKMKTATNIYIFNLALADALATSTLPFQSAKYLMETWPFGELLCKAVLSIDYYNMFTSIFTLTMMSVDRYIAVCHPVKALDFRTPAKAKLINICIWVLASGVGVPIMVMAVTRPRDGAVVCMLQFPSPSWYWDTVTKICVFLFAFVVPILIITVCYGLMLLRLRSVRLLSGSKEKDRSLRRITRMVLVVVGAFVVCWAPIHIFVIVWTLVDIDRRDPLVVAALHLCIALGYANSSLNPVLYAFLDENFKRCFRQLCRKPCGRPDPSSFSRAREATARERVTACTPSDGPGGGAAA
In series [8] the target is T3, human δ-opioid receptor (OPRD1). As to the kind of experiment: Forskolin-induced cAMP accumulation assay, DOR antagonist mode. (Changes in cAMP serve as a functional read-out for many G protein-coupled receptors.)
The target in series [9] is T2, mouse mu opioid receptor. As to the kind of experiment: [35S]GTPγS functional assay (mMOR-CHO membranes). The class given is biochemical. On the technique in general: Binding of GTPγS marks nucleotide exchange on a G protein.

Regarding `C/C=C\[C@H]1[C@H]2CCC[C@]1(c1cccc(O)c1)CCN2CCc1ccccc1` [Compound 17, 3-((1R,5S,9R)-2-Phenethyl-9-((Z)-prop-1-en-1-yl)-2-azabicyclo [3.3.1]nonan-5-yl)phenol], the values for the concentration for half-maximal inhibition (IC50) in series [1] and in [8] were 0.035 ± 0.0097 µM and 0.113 ± 0.0198 µM, respectively. The “Effect on tail withdrawal latency (antinociception)” value in the series with squirrel monkeys [2] was “increased tail withdrawal latency; also recorded: consistent and significant antinociceptive effects”. The Ki on mouse mu opioid receptor [3] stood at 0.00183 ± 0.00024 µM. The EC50 in series [4] is greater than 10 µM; in [7], greater than 10 µM; at mouse mu opioid receptor [9] (mMOR-CHO membranes, read-out: GTPgS EC50), 0.00964 ± 0.0017 µM. Further, in [5], the “KOR Antagonist %Imax ± SEM” value was found to be 111.6 ± 7.9%. The “Effect on ventilatory ratio (respiratory depression)” value in the series on squirrel monkeys [6] is “without significantly altering ventilation; also recorded: limited effects on ventilatory ratio”. The “DOR Antagonist %Imax ± SEM” value in [8] (versus EC50 of SNC80, normalized to naltrexone) was 143.3 ± 11.9%. Moreover, on mouse mu opioid receptor [9] (read-out: GTPgS % Emax of (DAMGO)), the Emax came to 18 ± 1.45%.
